Reference: patent publication US11135310B2, “Gold porphyrin-PEG conjugates and methods of use” (The University of Hong Kong, priority 2015, dated 2021)
Read-outs that look alike come from different tables or passages of the source.

Assays:
[1] = tested on: HeLa; assay: In vitro cytotoxicity, MTT assay; format: cell-based, human
From the text: Therefore, it was anticipated that a not too high loading of DOX into nanostructures of 1 could be used for anti-cancer purposes in order to maintain low toxicity toward non-tumorigenic cells. Together with the higher encapsulation efficiency of DOX, NC1 was selected for investigations of the in vitro cytotoxicity. […] The in vitro cytotoxicity of NC1 was also compared to that of the mixture of nanostructures of 1 and DOX. […] The observed cytotoxicity was further evaluated by the combination index (CI), which can describe the effect of drug combination. […] It is shown that dose and effect are interchangeable via defined parameters. This general equation for the single drug effect has been extended to the multiple drug effect equation for n drugs. These equations provide the theoretical basis for the combination index (CI)-isobologram equation that allows quantitative determination of drug interactions, where CI<1, =1, and >1 indicate synergism, additive effect, and antagonism, respectively. [Chou, et al. Pharmacol. Rev. 2006, 58, 621] […] The synergistic effect can originate from different molecular targets and/or mechanism of action of DOX from that of gold(III) porphyrin complexes. […] These different modes of action would allow supra-additive effect on killing HeLa cells by the co-delivery.

[2] = tested on: NCI-H460; assay: In vitro cytotoxicity, MTT assay; format: cell-based, human; conditions: for IC50: MTT assay, 72 h incubation
[3] = tested on: HCT116; assay: In vitro cytotoxicity, MTT assay; format: cell-based, human; conditions: for IC50: HCT116, MTT assay, 72 h incubation
[4] = tested on: A2780; assay: In vitro cytotoxicity, MTT assay; format: cell-based, human; conditions: for IC50: MTT assay, 72 h incubation
[5] = tested on: A2780cis; assay: In vitro cytotoxicity, MTT assay; format: cell-based, human; conditions: for IC50: MTT assay, 72 h incubation; for Resistance found in A2780cis: Determined by IC50 of A2780cis cells/IC50 of A2780 cells
[6] = tested on: NCM460; assay: In vitro cytotoxicity, MTT assay; format: cell-based, human; conditions: 72 h incubation
[7] = tested on: CCD-19Lu; assay: In vitro cytotoxicity, MTT assay; format: cell-based; conditions: 72 h incubation
[8] = tested on: non-tumorigenic cells; assay: In vitro cytotoxicity, MTT assay, non-tumorigenic cells; format: cell-based; conditions: 72 h
[9] = tested on: HCT116 cells; assay: Hydrolysis of the gold(III) complexes in live cells, UPLC-QTOF-MS; format: in vitro ADME, human; conditions: 2 μM, 24 h, UPLC-QTOF-MS of lysates
Procedure: Hydrolysis of the gold(III) complexes in live cells has been studied by ultra-performance liquid chromatography coupled quadrupole-time-of-flight mass spectrometry (UPLC-QTOF-MS). Colon cancer cells, HCT116, were treated with 1 and A1 (2 μM) for 24 h, harvested and lysed by acetonitrile-water solution mixture (3:1, v/v) prior to UPLC-QTOF-MS analysis. […] In view of the fact that the peak with retention time of 6.44 min in the total-ion chromatogram of cell lysates of HCT116 treated with 1 was absence in the total-ion chromatogram of 1 in acetonitrile solution, this peak should be owing to the metabolite of 1 formed in HCT116 cells.

[10] = tested on: A2780adr cells; assay: Cellular uptake by ICP-MS; format: cell-based, human; conditions: 2 μM, 37° C.
From the text: Based on the results of previous study on cellular uptake of nanostructures [Davis, M. E. et al. Nat. Rev. Drug Discov. 2008, 7, 771] and the strong dependence of the uptake mechanism of 1 on temperature, K^+ concentration and hypertonic condition (FIG. 3d), nanostructures of 1 likely entered live cells by clathrin-mediated endocytosis.
To rationalize the lower toxicity of NC1 toward MIHA cells, cellular uptake of NC1 by MIHA and cancer cells has been investigated by ICP-MS (FIGS. 3b and 4). The gold contents in A2780 and A2780adr cells were 2.6- and 2.0-fold higher than that in MIHA cells, respectively, after incubation with NC1 for 2 h. […] On the other hand, co-incubation of MIHA cells with 1 and DOX should not lead to significant changes in cellular uptake rate of DOX. […] For NC1, it was less toxic toward MIHA cells as reflected by the apparent “strong antagonism” (Table 3), which should be owing to the decrease of DOX cellular uptake by the encapsulation from the nanostructures of 1, rather than real antagonism from DOX and 1.

[11] = tested on: HCT116 xenografts; format: in vivo; conditions: 4 mg/kg intravenous, 24 days, n=8, p<0.01
From the text: FIGS. 8B and 8C show changes in tumor volume and body weight, respectively, in mice (n=8) after treatment with different doses of 1 or A1. The control group received an equal volume of PBS only. ** denotes p<0.01 vs. control.
Significant pulmonary hemorrhage in the alveoli and a thickening of alveolar walls were found. Also, apoptotic hepatocytes and swollen renal epithelial cells were found, leading to subsequent shrinkage of kidney tubules. […] The lower systemic toxicity of 1 can be explained by the lower accumulation of 1 in the organs of mice treated at its effective dosage, as compared to that of A1 and Au1a (FIG. 10).

[12] = Systemic toxicity in mice bearing HCT116 xenografts (body weight, histopathology, blood biochemistry); format: in vivo
From the text: FIGS. 9A-9H show blood biochemistry analysis of ALT, AST, GLB, BUN, CREA, UA, LDH and CK, respectively, in the mice (n=8) at 24 days post-treatment.

[13] = tested on: A2780adr; conditions: for IC50: MTT assay, 72 h incubation; for Resistance found in A2780adr: Determined by IC50 of A2780adr cells/IC50 of A2780 cells
[14] = tested on: MIHA; assay: In vitro cytotoxicity, MTT assay
[15] = tested on: HCT116 cells; assay: Induction of apoptosis, CellEvent Caspase-3/7 Green (microscopy and flow cytometry); format: cell-based, human; conditions: NC1 ([1]=3.5 μM and [DOX]=0.5 μM) or DOX alone
[16] = tested on: A2780adr cells; assay: Cellular uptake of DOX, cell lysates by UPLC-QTOF-MS; format: cell-based, human; conditions: for Uptake of DOX by A2780adr cells: [DOX]=0.5 μM
[17] = tested on: A2780adr; assay: cells; conditions: Homo sapiens, A2780 ADR, 72 h
[18] = MTT assay, 72 h incubation, read-out: IC50
[19] = IC50 of MIHA cells/IC50 of cancer cells
[20] = IC50 of NCM460 cells/IC50 of cancer cells
[21] = HCT-116, IC50 of MIHA cells/IC50 of cancer cells
[22] = HCT-116, IC50 of NCM460 cells/IC50 of cancer cells
[23] = A2780cis, IC50 of MIHA cells/IC50 of cancer cells
[24] = A2780cis, IC50 of NCM460 cells/IC50 of cancer cells
[25] = A2780adr, IC50 of MIHA cells/IC50 of cancer cells
[26] = A2780adr, IC50 of NCM460 cells/IC50 of cancer cells
[27] = MIHA, MTT assay, 72 h incubation

COC(=O)c1ccc(-c2c3nc(c(-c4ccccc4)c4ccc([n-]4)c(-c4ccccc4)c4nc(c(-c5ccccc5)c5ccc2[n-]5)C=C4)C=C3)cc1.[Au+3].[Cl-] [A1]
Toxicity toward cancer cells compared to that toward MIHA cells ([1]; IC50 of non-tumorigenic MIHA cells/IC50 of cancer cells): 0.9
Toxicity toward cancer cells compared to that toward NCM460 cells ([1]; IC50 of non-tumorigenic NCM460 cells/IC50 of cancer cells): 0.2
IC50 [1, 18]: 800 ± 100 nM
Toxicity toward cancer cells compared to that toward MIHA cells [2, 19]: 7.0
Toxicity toward cancer cells compared to that toward NCM460 cells [2, 20]: 1.3
IC50 [2]: 100 ± 10 nM
IC50 [3]: 90 ± 10 nM
Toxicity toward cancer cells compared to that toward MIHA cells [3, 21]: 7.7
Toxicity toward cancer cells compared to that toward NCM460 cells [3, 22]: 1.4
Toxicity toward cancer cells compared to that toward MIHA cells [4, 19]: 3.5
Toxicity toward cancer cells compared to that toward NCM460 cells [4, 20]: 0.7
IC50 [4]: 200 ± 20 nM
Toxicity toward cancer cells compared to that toward MIHA cells [5, 23]: 3.5
Toxicity toward cancer cells compared to that toward NCM460 cells [5, 24]: 0.7
IC50 ([5]; A2780cis): 200 ± 30 nM
Resistance found in A2780cis [5]: 1.0
IC50 [6]: 130 ± 10 nM
IC50 [7]: 730 ± 40 nM
IC50 for non-tumorigenic cells [8]: submicromolar range
Species formed by hydrolysis of ester bond in cells [9]: [Au(TPP—COOH)]^+
Incubation time after which amount in A2780adr cells decreases [10]: 0.75 h
Reduction of tumor volume [11]: 56%
Reduction of tumor weight [11]: 49%
Blood biochemistry (organ damage indicators) ([12]; 4 mg/kg, for 1: ALT, GLB, BUN and CK, p<0.05): significant damage in the lung, liver and kidney
Histopathological analysis of lung, liver, kidney, heart and spleen ([12]; after treatment (A1: 4 mg/kg)): damage in normal lung, liver and kidney tissues
Toxicity toward cancer cells compared to that toward MIHA cells [13, 25]: 1.1
Toxicity toward cancer cells compared to that toward NCM460 cells [13, 26]: 0.2
IC50 ([13]; A2780adr): 650 ± 60 nM
Resistance found in A2780adr [13]: 0.31
IC50 [14, 27]: 700 ± 100 nM

N.N.[Cl][Pt][Cl] [Cisplatin, cisplatin, reference compound]
IC50 [1, 18]: 19800 ± 1400 nM
IC50 [2]: 65400 ± 5000 nM
IC50 [3]: 15700 ± 2200 nM
IC50 [4]: 2600 ± 300 nM
IC50 ([5]; A2780cis): 8400 ± 50 nM
Resistance found in A2780cis [5]: 0.31
IC50 [6]: 12300 ± 900 nM
IC50 [7]: 49100 ± 5400 nM
IC50 ([13]; A2780adr): 12700 ± 1900 nM
Resistance found in A2780adr [13]: 0.20
IC50 [14, 27]: 17600 ± 1300 nM

O=C(O)CCCCCCCCC(=O)Oc1ccc(-c2c3nc(c(-c4ccccc4)c4ccc([n-]4)c(-c4ccccc4)c4nc(c(-c5ccccc5)c5ccc2[n-]5)C=C4)C=C3)cc1.[Au+3].[Cl-] [A10]
IC50 [1, 18]: 410 ± 50 nM
IC50 [2]: 180 ± 4 nM
IC50 for non-tumorigenic cells [8]: submicromolar range
IC50 ([13]; A2780adr): 520 ± 60 nM
IC50 [14, 27]: 610 ± 50 nM

Oc1ccc(-c2c3nc(c(-c4ccccc4)c4ccc([n-]4)c(-c4ccccc4)c4nc(c(-c5ccccc5)c5ccc2[n-]5)C=C4)C=C3)cc1.[Au+3].[Cl-] [A4]
IC50 [1, 18]: 380 ± 70 nM
IC50 [2]: 150 ± 3 nM
IC50 for non-tumorigenic cells [8]: submicromolar range
IC50 ([13]; A2780adr): 530 ± 140 nM
IC50 [14, 27]: 570 ± 40 nM

COc1cccc2c1C(=O)c1c(O)c3c(c(O)c1C2=O)C[C@@](O)(C(=O)CO)C[C@@H]3O[C@H]1C[C@H](N)[C@H](O)[C@H](C)O1 [DOX, doxorubicin]
IC50 ([1]; Homo sapiens, 72 h, read-out: DOX at IC50): 570 nM
IC50 ([1]; Homo sapiens, 72 h, read-out: Total dose at IC50): 570 nM
IC50 ([1]; Homo sapiens, MTT assay, 72 h incubation, read-out: IC50): 570 ± 60 nM
Toxicity (of DOX) toward cancer cells compared to that toward MIHA cells ([1]; IC50 of MIHA cells/IC50 of cancer cells, cytotoxicity of 1 in NC1 not considered): 0.2
Toxicity (of DOX) toward cancer cells compared to that toward NCM460 cells ([1]; IC50 of NCM460 cells/IC50 of cancer cells, cytotoxicity of 1 in NC1 not considered): 1.8
IC50 ([2]; Homo sapiens): 36 ± 10 nM
Toxicity (of DOX) toward cancer cells compared to that toward MIHA cells [2, 19]: 2.8
Toxicity (of DOX) toward cancer cells compared to that toward NCM460 cells [2, 20]: 27.8
Toxicity (of DOX) toward cancer cells compared to that toward MIHA cells [3, 21]: 0.7
Toxicity (of DOX) toward cancer cells compared to that toward NCM460 cells [3, 22]: 7.1
IC50 ([3]; Homo sapiens, HCT-116): 140 ± 20 nM
IC50 ([4]; Homo sapiens): 45 ± 7 nM
Toxicity (of DOX) toward cancer cells compared to that toward MIHA cells [4, 19]: 2.2
Toxicity (of DOX) toward cancer cells compared to that toward NCM460 cells [4, 20]: 22.2
Toxicity (of DOX) toward cancer cells compared to that toward MIHA cells [5, 23]: 1.9
Toxicity (of DOX) toward cancer cells compared to that toward NCM460 cells [5, 24]: 18.5
IC50 ([5]; Homo sapiens, A2780cis): 54 ± 5 nM
Incubation time for induction of apoptosis of HCT116 cells [15]: 30 h
DOX uptake smaller than after incubation of NC1 ([16]; 14 h): 1.8 fold
DOX uptake smaller than after incubation of NC1 ([16]; 24 h): 3.0 fold
Uptake of DOX by A2780adr cells ([16]; incubation 14 h): 33.9 μg per g of proteins
Uptake of DOX by A2780adr cells ([16]; incubation 24 h): 27.8 μg per g of proteins
Toxicity (of DOX) toward cancer cells compared to that toward MIHA cells [13, 25]: 0.1
Toxicity (of DOX) toward cancer cells compared to that toward NCM460 cells [13, 26]: 1.5
Lower cytotoxicity toward A2780adr cells than non-resistant A2780 cells ([13]; from IC50 of Table 1): 15 fold
IC50 [17]: 680 ± 50 nM
IC50 ([17]; read-out: DOX at IC50): 700 nM
IC50 ([17]; read-out: Total dose at IC50): 700 nM
IC50 ([14]; 72 h): 100 ± 10 nM
IC50 ([14]; 72 h, read-out: DOX at IC50): 100 nM
IC50 ([14]; 72 h, read-out: Total dose at IC50): 100 nM
